The Kinase Knowledgebase extract (Sharma et al. 2016)
Several values for one entry are separate records, joined by “and”; a condition that tells them apart may be missing. Equal entries are not always repeated.

target: CDK2 (human) (UniProt P24941); test: Enzyme Assay

C1=CCOCc2cc(ccc2OCCN2CCCC2)Nc2nccc(n2)C2=CC=C(COC1)O2 and C1=CCOCc2cc(ccc2OCCN2CCCC2)Nc2nccc(n2)C2=CC=C(COC1)S2 cannot be ordered by IC50: > 5000 nM for the first, > 5000 nM for the second.

CN1CC=CCCOc2cc(F)cc(c2)-c2ccnc(n2)Nc2ccc(OCCN3CCCC3)c(c2)C1 and Fc1cc2cc(c1)-c1ccnc(n1)Nc1ccc(OCCN3CCCC3)c(c1)COCC=CCCO2 cannot be ordered by IC50: ≤ 1000 nM for the first, 1000 to 5000 nM for the second.

CCS(=O)(=O)CCOc1ccc2cc1CN(C)CC=CCCOc1cccc(c1)-c1ccnc(n1)N2 and CCN(CC)CCOc1ccc2cc1CN(C)CC=CCCOc1cccc(c1)-c1ccnc(n1)N2 cannot be ordered by IC50: ≤ 1000 nM for the first, ≤ 1000 nM for the second.

CN1CC=CCCOc2cccc(c2)-c2ccnc(n2)Nc2ccc(OCCn3cncn3)c(c2)C1 and CN1CC=CCCOc2cccc(c2)-c2ccnc(n2)Nc2ccc(OCCN3CCCC3)c(c2)C1 cannot be ordered by IC50: ≤ 1000 nM for the first, ≤ 1000 nM for the second.

CN1Cc2cccc(c2)Nc2nccc(n2)-c2cccc(c2)OCCC2CC2C1 (stereo unspecified) and C1=CCN(C2CC2)Cc2cccc(c2)Nc2nccc(n2)-c2cccc(c2)OCC1 cannot be ordered by IC50: ≤ 1000 nM for the first, ≤ 1000 nM for the second.

CCN(CC)CCOc1ccc2cc1COCC=CCCOc1cccc(c1)-c1ccnc(n1)N2 and CCN(CC)CCOc1ccc2cc1COCC=CCCOc1cccc(c1)-c1nc(ncc1C)N2 cannot be ordered by IC50: > 5000 nM for the first, > 5000 nM for the second.

CN1CC=CCCOc2cccc(c2)-c2ccnc(n2)Nc2ccc(N3CCOCC3)c(c2)C1 and CN1CC=CCCOc2cccc(c2)-c2ccnc(n2)Nc2ccc(OCCN3CCOCC3)c(c2)C1 cannot be ordered by IC50: ≤ 1000 nM for the first, ≤ 1000 nM for the second.

First: O=C1CCC=CCOCc2cccc(c2)Nc2nccc(n2)-c2cccc(c2)N1
Second: O=C1NCC=CCOCc2cccc(c2)Nc2nccc(n2)-c2cccc1c2
The IC50 of the first is lower: 1000 to 5000 nM for the first, > 5000 nM for the second. The first is the more potent here.

COc1cc2cc(c1OCCN1CCCC1)COCC=CCOCc1cccc(c1)-c1ccnc(n1)N2 and C1=CCOCc2cc(ccc2OCCN2CCCC2)Nc2nccc(n2)-c2cccc(c2)COC1 fall in the same range of IC50: 1000 to 5000 nM for the first, 1000 to 5000 nM for the second.

Compared with C1=CCOCc2cc(ccc2OCCN2CCCC2)Nc2nccc(n2)-c2cncc(c2)COC1, C1=CCOCc2cc(ccc2OCCN2CCCC2)Nc2nccc(n2)-c2csc(c2)COC1 is higher in IC50: 1000 to 5000 nM for the first, > 5000 nM for the second.

Compared with CCN(CC)CCOc1ccc2cc1COCC=CCCOc1cc(ccc1OC)-c1ccnc(n1)N2, CCN(CC)CCOc1ccc2cc1COCC=CCOCc1cccc(c1)-c1ccnc(n1)N2 is lower in IC50: > 5000 nM for the first, 1000 to 5000 nM for the second. The second is the more potent here.

C1=CCN(C2CC2)Cc2cc(ccc2OCCN2CCOCC2)Nc2nccc(n2)-c2cccc(c2)OCC1 and CN1CC=CCCOc2cccc(c2)-c2ccnc(n2)Nc2ccc(OCCN3CCCCC3)c(c2)C1 cannot be ordered by IC50: ≤ 1000 nM for the first, ≤ 1000 nM for the second.

CN1CC=CCCOc2cc(F)cc(c2)-c2ccnc(n2)Nc2cccc(c2)C1 and CN1CC=CCCOc2cccc(c2)-c2ccnc(n2)Nc2cc(N)cc(c2)C1 cannot be ordered by IC50: ≤ 1000 nM for the first, ≤ 1000 nM for the second.

C1=CCOCc2cc(ccc2OCCN2CCCC2)Nc2nccc(n2)-c2cc(co2)COC1 and C1=CCOCc2cc(ccc2OCCN2CCCC2)Nc2nccc(n2)-c2coc(c2)COC1 cannot be ordered by IC50: > 5000 nM for the first, > 5000 nM for the second.

CN1CC=CCOCC2=CC=C(S2)c2ccnc(n2)Nc2ccc(OCCN3CCCC3)c(c2)C1 and Fc1ccc2cc1COCC=CCOCc1cc(ccc1OCCN1CCCC1)Nc1nccc-2n1 cannot be ordered by IC50: ≤ 1000 nM for the first, 1000 to 5000 nM for the second.

CN1CC=CCCOc2cc(ccc2N)-c2ccnc(n2)Nc2cccc(c2)C1 and CN1CC=CCCOc2cccc(c2)-c2ccnc(n2)Nc2cc(ccn2)C1 cannot be ordered by IC50: ≤ 1000 nM for the first, 1000 to 5000 nM for the second.

First: COc1ccc2cc1COCC=CCOCc1cc(ccc1OCCN1CCCC1)Nc1nccc-2n1
Second: c1cc2cc(c1)-c1ccnc(n1)Nc1ccc(OCCN3CCCC3)c(c1)COCC1CC1COC2 (stereo unspecified)
The IC50 of the first is higher: > 5000 nM for the first, 1000 to 5000 nM for the second. The second is the more potent here.

C1=CCOCc2cc(ccc2N2CCOCC2)Nc2nccc(n2)-c2cccc(c2)COC1 and CN1CCN(c2ccc3cc2COCC=CCOCc2cccc(c2)-c2ccnc(n2)N3)CC1 cannot be ordered by IC50: > 5000 nM for the first, > 5000 nM for the second.

CN1CC=CCOCC2=CC=C(O2)c2ccnc(n2)Nc2cccc(c2)C1 and CN1CC=CCC(=O)Nc2cccc(c2)-c2ccnc(n2)Nc2cccc(c2)C1 cannot be ordered by IC50: ≤ 1000 nM for the first, 1000 to 5000 nM for the second.

Cc1cnc2nc1-c1cccc(c1)OCCC=CCN(C)Cc1cccc(c1)N2 and C1=CCNCc2cccc(c2)Nc2nccc(n2)-c2cccc(c2)OCC1 cannot be ordered by IC50: ≤ 1000 nM for the first, ≤ 1000 nM for the second.

For COc1ccc2cc1COCC=CCOc1cccc(c1)-c1ccnc(n1)N2, the IC50 was ≤ 1000 nM and > 5000 nM.
